Experimental data as given in ChEMBL document CHEMBL1201862, “PubChem BioAssay data set” (2004).
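Five concentrations, 48 hours, 96-well plates. GI50: concentration for 50% inhibition of growth.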 Calls of active or inactive are those of the source. Rule as the data show it: active = GI50 up to about 1.1 µM and inactive = higher.

Tests used:
Test in all cases: inhibition of tumour cell growth, NCI panel, 48 h
[1] = system: HT-29
[2] = system: A549
[3] = system: ACHN
[4] = system: SF-268
[5] = system: M14
[6] = system: Malme-3M
[7] = system: A498
[8] = system: UO-31
[9] = system: SK-OV-3
[10] = system: NCI-H522
[11] = system: RXF 393
[12] = system: NCI-H23
[13] = system: HOP-62
[14] = system: DLD-1
[15] = system: COLO 205
[16] = system: NCI-H226

SMILES	GI50 [1]	GI50 [2]	GI50 [3]	GI50 [4]	GI50 [5]	GI50 [6]	GI50 [7]	GI50 [8]	GI50 [9]	GI50 [10]	GI50 [11]	GI50 [12]	GI50 [13]	GI50 [14]	GI50 [15]	GI50 [16]
CN(C)c1ccc(/C=C2\C=Cc3ccccc32)cc1	40.4 µM (inactive)	76.6 µM (inactive)	> 100 µM (inactive)	45.1 µM (inactive)	29.2 µM (inactive)	> 100 µM (inactive)	42.7 µM (inactive)	20.2 µM (inactive)	45.9 µM (inactive)	17.3 µM (inactive)	17.9 µM (inactive)	35.6 µM (inactive)	> 100 µM (inactive)	51.8 µM (inactive)	58.6 µM (inactive)	
COC(=O)c1ccc(C(=O)OC)c2nc3cc(Cl)ccc3nc12	75.3 µM (inactive)	> 100 µM (inactive)	> 100 µM (inactive)	> 100 µM (inactive)	> 100 µM (inactive)	> 100 µM (inactive)	> 100 µM (inactive)	> 100 µM (inactive)	> 100 µM (inactive)	> 100 µM (inactive)		> 100 µM (inactive)	> 100 µM (inactive)	> 100 µM (inactive)	> 100 µM (inactive)	> 100 µM (inactive)
CCOC(=O)C1=C(C)N(NC(=O)Nc2ccccc2)C2(N)N(NC(=O)Nc3ccccc3)C(C)=C(C(=O)OCC)C12C#N (stereo unspecified)	20.7 µM (inactive)	26.5 µM (inactive)	21 µM (inactive)	19.9 µM (inactive)	19.9 µM (inactive)	15.5 µM (inactive)	22.3 µM (inactive)	> 100 µM (inactive)	25.5 µM (inactive)	18.9 µM (inactive)	13.6 µM (inactive)	22.3 µM (inactive)		19.4 µM (inactive)	17.7 µM (inactive)	18.4 µM (inactive)
Cc1nc(O)nc(CC(O)(c2ccccc2)c2ccccc2)c1-c1ccccc1	> 100 µM (inactive)	> 100 µM (inactive)	> 100 µM (inactive)	> 100 µM (inactive)	> 100 µM (inactive)	> 100 µM (inactive)	> 100 µM (inactive)	50.1 µM (inactive)	> 100 µM (inactive)	58.5 µM (inactive)	> 100 µM (inactive)	> 100 µM (inactive)	> 100 µM (inactive)	> 100 µM (inactive)	> 100 µM (inactive)	> 100 µM (inactive)
Cn1c2cc([N+](=O)[O-])ccc2c(=O)c2c(O)cc3c(c21)C=CC(C)(C)O3	> 100 µM (inactive)	57.4 µM (inactive)	> 100 µM (inactive)	35.1 µM (inactive)	> 100 µM (inactive)	> 100 µM (inactive)	33.5 µM (inactive)	26.7 µM (inactive)	21.9 µM (inactive)	46.5 µM (inactive)	25.9 µM (inactive)	63.4 µM (inactive)		> 100 µM (inactive)	> 100 µM (inactive)	
CCCC/C=C1\CCC(CN2CCCC2)C1=O (stereo unspecified)	14.5 µM (inactive)	18.5 µM (inactive)	6.46 µM (inactive)	16 µM (inactive)	11.2 µM (inactive)	17.8 µM (inactive)	14.7 µM (inactive)	17.2 µM (inactive)	28.5 µM (inactive)			17.7 µM (inactive)	18.4 µM (inactive)	3.76 µM (inactive)	12.9 µM (inactive)	17.3 µM (inactive)
Cc1ccc(/C=C/C(=O)c2sc(-c3cccnc3)nc2C)cc1	> 100 µM (inactive)	> 100 µM (inactive)	> 100 µM (inactive)			> 100 µM (inactive)	> 100 µM (inactive)	> 100 µM (inactive)	> 100 µM (inactive)	> 100 µM (inactive)	98.9 µM (inactive)	> 100 µM (inactive)	> 100 µM (inactive)	> 100 µM (inactive)	> 100 µM (inactive)	> 100 µM (inactive)
C/C(CC(=O)Nc1ccc(C)c(C)c1)=N\NC(N)=O	> 100 µM (inactive)	> 100 µM (inactive)	> 100 µM (inactive)	> 100 µM (inactive)	> 100 µM (inactive)	> 100 µM (inactive)	> 100 µM (inactive)	> 100 µM (inactive)	> 100 µM (inactive)	82 µM (inactive)	> 100 µM (inactive)	> 100 µM (inactive)	> 100 µM (inactive)	> 100 µM (inactive)	> 100 µM (inactive)	57.9 µM (inactive)
Cc1nc2nnc(C)n2c2c1C(=O)Nc1ccccc1N2	> 100 µM (inactive)	> 100 µM (inactive)	> 100 µM (inactive)	> 100 µM (inactive)	> 100 µM (inactive)	> 100 µM (inactive)		> 100 µM (inactive)	> 100 µM (inactive)	> 100 µM (inactive)	> 100 µM (inactive)	> 100 µM (inactive)	> 100 µM (inactive)	> 100 µM (inactive)	> 100 µM (inactive)	> 100 µM (inactive)
N=C(NNS(=O)(=O)c1ccccc1)Oc1ccc(Br)cc1Br	55.7 µM (inactive)	> 100 µM (inactive)	> 100 µM (inactive)	> 100 µM (inactive)	> 100 µM (inactive)	> 100 µM (inactive)	> 100 µM (inactive)	> 100 µM (inactive)	> 100 µM (inactive)	67 µM (inactive)	> 100 µM (inactive)	84.7 µM (inactive)	> 100 µM (inactive)	> 100 µM (inactive)	> 100 µM (inactive)	73.5 µM (inactive)
CCOC(=O)[C@H]1Nc2ccc(OC)cc2C2c3ccccc3CC21 (stereo partly specified)	> 100 µM (inactive)	> 100 µM (inactive)	> 100 µM (inactive)	> 100 µM (inactive)	> 100 µM (inactive)	> 100 µM (inactive)	> 100 µM (inactive)	> 100 µM (inactive)		> 100 µM (inactive)	37.5 µM (inactive)	> 100 µM (inactive)	> 100 µM (inactive)	> 100 µM (inactive)	> 100 µM (inactive)	> 100 µM (inactive)
CS/C(=N/C(=O)c1ccccc1Cl)SCCS/C(=N\C(=O)c1ccccc1Cl)SC	> 100 µM (inactive)	> 100 µM (inactive)	> 100 µM (inactive)	> 100 µM (inactive)	> 100 µM (inactive)	> 100 µM (inactive)	> 100 µM (inactive)	> 100 µM (inactive)		> 100 µM (inactive)	> 100 µM (inactive)	> 100 µM (inactive)	> 100 µM (inactive)	> 100 µM (inactive)	> 100 µM (inactive)	> 100 µM (inactive)
OCCN(CCO)c1ncnc2c1sc(=S)n2-c1ccccc1	> 100 µM (inactive)	> 100 µM (inactive)	> 100 µM (inactive)	> 100 µM (inactive)	> 100 µM (inactive)	> 100 µM (inactive)	46 µM (inactive)	> 100 µM (inactive)	> 100 µM (inactive)	> 100 µM (inactive)	> 100 µM (inactive)	> 100 µM (inactive)	> 100 µM (inactive)	> 100 µM (inactive)	> 100 µM (inactive)	> 100 µM (inactive)
CCOC(=O)C12CCSC1C1(C#N)C(C#N)=CC2(N=P(c2ccccc2)(c2ccccc2)c2ccccc2)n2c(=O)n(-c3ccccc3)c(=O)n21 (stereo unspecified)	39.8 µM (inactive)	34.9 µM (inactive)	40.2 µM (inactive)	35.1 µM (inactive)	42.2 µM (inactive)	44.6 µM (inactive)	51.5 µM (inactive)	24.2 µM (inactive)		29.5 µM (inactive)	> 100 µM (inactive)	49.7 µM (inactive)	46.2 µM (inactive)	35.9 µM (inactive)	37.8 µM (inactive)	41.3 µM (inactive)
OC1CC1Sc1ccccc1 (stereo unspecified)	27.2 µM (inactive)	34.6 µM (inactive)	43.5 µM (inactive)	18.6 µM (inactive)	36.6 µM (inactive)	95.1 µM (inactive)	71.8 µM (inactive)	10.1 µM (inactive)	80.4 µM (inactive)	17.6 µM (inactive)	25.2 µM (inactive)	35.6 µM (inactive)	43 µM (inactive)	29.8 µM (inactive)	40.7 µM (inactive)	
Cc1cc2c(c(C(N)=O)c1C)-c1cc(Cl)cc(Cl)c1C2=O	> 100 µM (inactive)		> 100 µM (inactive)	97.7 µM (inactive)	> 100 µM (inactive)	> 100 µM (inactive)	54.6 µM (inactive)	> 100 µM (inactive)	57.4 µM (inactive)	> 100 µM (inactive)	> 100 µM (inactive)	> 100 µM (inactive)	> 100 µM (inactive)	> 100 µM (inactive)	> 100 µM (inactive)	
[N-]=[N+]=NC12CC3C4CC5CC3C(C1)C(C5)C4C2	> 100 µM (inactive)	> 100 µM (inactive)	> 100 µM (inactive)	> 100 µM (inactive)	> 100 µM (inactive)	> 100 µM (inactive)	> 100 µM (inactive)	> 100 µM (inactive)	> 100 µM (inactive)	> 100 µM (inactive)		> 100 µM (inactive)	> 100 µM (inactive)	> 100 µM (inactive)	> 100 µM (inactive)	> 100 µM (inactive)
CCN(CCCl)CCCCCNc1c2ccccc2nc2ccc(OC)cc12	0.259 µM (active)	0.373 µM (active)	0.47 µM (active)	0.597 µM (active)	2.15 µM (inactive)	2.04 µM (inactive)	1.26 µM (inactive)	2.88 µM (inactive)	1.47 µM (inactive)	0.628 µM (active)	1.07 µM (active)	0.356 µM (active)	2.14 µM (inactive)	0.35 µM (active)	1.1 µM (active)	0.321 µM (active)
